According to patent publication US7985837B2, “Two component Bacillus lantibiotic and methods for producing and using the same” (The Board of Trustees of the University of Illinois, priority 2006, dated 2011):

Columns and labels:
[1] = test system: Lactococcus lactis CNRZ 117; test: Bioactivity assay, solid agar medium test (zones of inhibition); format: cell-based; settings: for zone of inhibition, both modified peptides together: prepared in vitro: HalA1-Xa/HalA2-Xa modified by HalM1/HalM2, leader removed by Factor Xa, both peptides applied
Experimental: Bioactivity Assay. The inhibitory activity of haloduracin isolated from the producing strain and prepared in vitro was assayed using the solid agar medium test. Liquid molten GM17 agar (4% M17, 0.5% glucose, 1.5% agar) was cooled to 50° C. and seeded with an overnight culture of the indicator strain Lactococcus lactis CNRZ 117. After agar solidification in a Petri dish, samples were applied to a small well created in the medium. Assay samples were typically concentrated to dryness using a speed vac and rehydrated in a small volume (5-15 μL) of sterile water for application purposes. The cell-free solution isolated from B. halodurans C-125 was applied directly to the plate without further concentration. Plates were incubated overnight at room temperature and zones of inhibition were observed the next day.

[2] = Ltn1 and Ltn2 acting in synergy in a 1:1 ratio; cited from earlier work

In the case of “Hal1: mature haloduracin alpha peptide from HalA1, SEQ ID NO:5; three dehydrations and one disulfide”, the “zones of growth inhibition / antimicrobial activity after iodoacetamide modification” value ([1]; peptides isolated from B. halodurans, reduced and alkylated with iodoacetamide (Hal1 two adducts, Hal2 zero adducts), excess IAA removed) is reported as “did not abolish antimicrobial activity”.
With “haloduracin: two-component lantibiotic of Bacillus halodurans C-125 composed of the modified peptides Hal1 (SEQ ID NO:5) and Hal2 (SEQ ID NO:6)” the “zone of growth inhibition” value ([1]; cell-free supernatant isolated from producer strain B. halodurans C-125, applied to indicator strain) was “a zone of growth inhibition was produced”, the “zone of inhibition, both modified peptides together” value [1] was “comparable to the bactericidal effects exhibited by the peptides isolated from the producer strain” and the “zone of inhibition, both modified peptides together” value ([1]; listed as haloduracin peptides prepared in vitro) was “zone of inhibition comparable to that produced by Hal1 and Hal2 isolated from B. halodurans”.
For lacticin 3147, the antibacterial activity [2] is listed as “nanomolar antibacterial activity”.
